Assay results taken from US20170216240A1, “METHODS FOR MODULATING IKS CHANNEL ACTIVITY” (UNIVERSITY OF MIAMI, priority 2014, published 2017).

Key:
Kv7.1 = Kv7.1 (Homo sapiens, UniProt P51787); experiment: G(V) shift of Kv7.1 expressed in Xenopus laevis oocytes, two-electrode voltage-clamp; type: cell-based; settings: Kv7.1, 70 μM, pH 7.4
Text: (§1) cDNAs encoding human Kv7.1 (GEnBAnk Acc. No. NM_000218) and KCNE1 (NM_000219) were subcloned into the expression vectors pGEM or pXOOM, containing the 5′- and 3′-untranslated regions for Xenopus laevis β-globin as well as a poly-A segment (Jespersen et al., Biotechniques 32, 536-538, 540 (2002)). The truncated KCNE1 construct KCNE1ΔC was constructed by introducing a Stop codon at position 67 using Quikchange site-directed mutagenesis kit (Qiagen). The construct was fully sequenced to ensure proper mutation and absence of unwanted mutations (sequencing by Genewiz). The concatemers E1-Kv7.1-Kv7.1 and E1-Kv7.1 were provided by Dr. R. S. Kass at Columbia University, and can be prepared as described in Chan et al. Journal of General Physiology 132(2), 135-144, (2012)). The E1-Kv7.1 construct was made by linking the C-terminus of KCNE1 to the N-terminus of KCNQ1. The E1-Kv7.1-Kv7.1 construct was made by digesting the E1-Kv7.1 and a Kv7.1-Kv7.1 dimer with Xho1 and inserting the 2-kb fragment from the Kv7.1-Kv7.1 dimer digest into the cut KCNE1-Kv7.1 construct. The DNA encoding E1-Kv7.1-Kv7.1 and E1-Kv7.1 were in the pGEM vector and contained mutations to make the constructs suitable for voltage-clamp fluorometry recordings (Wang et al., J Biol Chem 273, 34069-34074 (1998)). The original KCNE1 and Kv7.1 sequences were therefore removed, one at a time, from the pGEM vector using different restriction enzymes (New England Biolabs). Sequences were separated using gel electrophoresis and harvested using Qiagen gel extraction kit. Corresponding wild type sequences were ligated into the construct using T4 Ligase (New England Biolabs). To ensure correct sequence the constructs were sequenced (Genewiz) and tested with different restriction enzymes in combination with gel electrophoresis to measure length and conformation of the gene. cRNA for injection of all constructs was prepared from linearized DNA using the T7 mMessage mMachine transcription kit (Ambion) according to the manufactures instructions. RNA quality was checked by gel electrophoresis, and RNA concentrations were quantified by UV spectroscopy.
(§2) Xenopus laevis oocytes were isolated and maintained (Bentzen, B. H. et al. Neuropharmacology 51, 1068-1077 (2006)). Approximately 50 nl cRNA (50 ng Kv7.1, KCNE1-Kv7.1-Kv7.1 or KCNE1-Kv7.1 alternatively 25 ng Kv7.1 together with 8 ng KCNE1 or KCNE1ΔC) was injected into each oocyte using a Nanojet microinjector (Drummond). Electrophysiological experiments were made 2-5 days after injection. Currents were measured at room temperature with the two-electrode voltage-clamp technique (CA-1B Dagan amplifier). Currents were sampled at 1-3.3 kHz, filtered at 500 Hz, and not leakage corrected. […] A control solution containing (in mM): 88 NaCl, 1 KCl, 15 HEPES, 0.4 CaCl2, and 0.8 MgCl2 was used. NaOH was added to adjust pH to 7.4, yielding a final sodium concentration of about 100 mM. The holding voltage was generally set to −80 mV. Activation curves were generally elicited by stepping to test voltages between −110 and +60 mV (2-4 s durations and 10 mV increments) followed by a tail voltage of −30 mV. For recordings of Kv7.1 at pH 9 and pH 10, the holding voltage was set to more negative voltages because the largest DHA-induced shifts induced channel opening already at −80 mV. […] Therefore, in arachidonyl amine experiments a brief hyperpolarizing pulse of 50 ms to −120 mV was introduced between the test voltage and the tail voltage to relief the channels from inactivation.
(§3) Test compounds were dissolved in 99.5% ethanol to a concentration of 100 mM and stored at −20° C. (Börjesson et al., Biophys J 95, 2242-2253 (2008); Börjesson et al., Biophys J 98, 396-403 (2010)). Shortly before experiments, test compounds were diluted in control solution to the desired test concentration. Pure control solution was added to the bath using a gravity-driven perfusion system. […]

Kv7.1/KCNE1 = target: T1, Kv7.1/KCNE1 (Homo sapiens, UniProt P51787); experiment: G(V) shift of Kv7.1 co-expressed with KCNE1 in Xenopus oocytes, two-electrode voltage-clamp; type: cell-based; settings: 70 μM, pH 7.4; for ΔV1/2 ± SEM (G(V) shift): Kv7.1/E1
T1 construct: expressed in transfected cells; host or cells: Xenopus laevis oocytes (cRNA co-injection)
Text: as §1, §2, §3

intact guinea pig hearts = experiment: Restoration of QT interval in intact hearts with E4031-induced Long QT; settings: ECG and ventricular surface action potential
Text: Long QT syndrome was induced in intact guinea pig hearts by administration of the drug E4031, a HERG channel blocker.

in vitro = settings: human, Caco-2
[1] = listed as N-arachidonoyl taurine

ΔV1/2 ± SEM (G(V) shift) (Kv7.1; [1]): about −30 mV
ΔV1/2 ± SEM (G(V) shift) (Kv7.1; listed as N—AT): −26.2 ± 2.7 mV
ΔV1/2 ± SEM (G(V) shift) (Kv7.1/KCNE1): about −30 mV
ΔV1/2 ± SEM (G(V) shift) (Kv7.1/KCNE1; [1]): about −30 mV
ΔV1/2 ± SEM (G(V) shift) (Kv7.1/KCNE1; listed as N—AT): −27.0 ± 2.5 mV
G(V) shift of a representative cell (control curve shifted) (Kv7.1/KCNE1; Kv7.1/KCNE1): −24 mV
permeability coefficient (Papp) (Caco-2 cells): 22×10^−6 cms^−1
efflux ratio (in vitro): 1.9
Compound: CCCCC/C=C\C/C=C\C/C=C\C/C=C\CCCC(=O)NCCS(=O)(=O)O [N-AT, N-arachidonoyl taurine]
QT interval in hearts with prolonged QT induced by E4031 (intact guinea pig hearts): restores the QT interval
